Species: Rattus norvegicus
Test: DrugMatrix - Regimen: Daily Repeat
Assay type: toxicity, organism-based, Sprague-Dawley
Parameters: regimen Daily Repeat, gender Male, age 6-8 weeks
Conditions: in vivo, sc, route subcutaneous, […]; for ABSOLUTE BASOPHIL / ABSOLUTE EOSINOPHIL / ABSOLUTE LYMPHOCYTE / ABSOLUTE MONOCYTE / ABSOLUTE SEGMENTED NEUTROPHIL / BASOPHIL / EOSINOPHIL / ERYTHROCYTE COUNT / HEMATOCRIT / HEMOGLOBIN / LEUKOCYTE COUNT / LYMPHOCYTE / MEAN CORPUSCULAR HEMOGLOBIN / MEAN CORPUSCULAR HEMOGLOBIN CONCENTRATION / MEAN CORPUSCULAR VOLUME / MONOCYTE / NEUTROPHIL / NUCLEATED RED BLOOD CELLS / PLATELET COUNT: tissue Blood; for ALANINE AMINOTRANSFERASE / ALBUMIN / ALKALINE PHOSPHATASE / ASPARTATE AMINOTRANSFERASE / BLOOD UREA NITROGEN / CARBON DIOXIDE / CHLORIDE / CHOLESTEROL / CREATINE PHOSPHOKINASE / CREATININE / GLUCOSE / LACTATE DEHYDROGENASE / LIPASE / PHOSPHORUS / POTASSIUM / SODIUM / TOTAL BILIRUBIN / TOTAL PROTEIN / URIC ACID: tissue Plasma
[1] = 0 mg/kg, 72 h, dose level Control, time 3 day
[2] = 0 mg/kg, 120 h, dose level Control, time 5 day
[3] = 14 mg/kg, 72 h, dose level Low, time 3 day

CCN(CC)CCOCCC1=CCC2CC1C2(C)C (centres undefined) [MYRTECAINE]
ABSOLUTE BASOPHIL [1]: 0 CELLS/uL | ABSOLUTE EOSINOPHIL [1]: 0 CELLS/uL | ABSOLUTE LYMPHOCYTE [1]: 10887 CELLS/uL | ABSOLUTE MONOCYTE [1]: 56 CELLS/uL | ABSOLUTE SEGMENTED NEUTROPHIL [1]: 1057 CELLS/uL | BASOPHIL [1]: 0% | EOSINOPHIL [1]: 0% | ERYTHROCYTE COUNT [1]: 5.31 x10E6/uL | HEMATOCRIT [1]: 33.78% | HEMOGLOBIN [1]: 13.4 G/DL | LEUKOCYTE COUNT [1]: 12 x10E3/uL | LYMPHOCYTE [1]: 91.17% | MEAN CORPUSCULAR HEMOGLOBIN [1]: 25.25 pg | MEAN CORPUSCULAR HEMOGLOBIN CONCENTRATION [1]: 39.65 G/DL | MEAN CORPUSCULAR VOLUME [1]: 63.65 fL | MONOCYTE [1]: 0.5% | NEUTROPHIL [1]: 8.33% | NUCLEATED RED BLOOD CELLS [1]: 0 /100WBC | PLATELET COUNT [1]: 1142 x10E3/uL | ALANINE AMINOTRANSFERASE [1]: 57.17 u/L | ALBUMIN [1]: 4.28 G/DL | ALKALINE PHOSPHATASE [1]: 425.83 u/L | ASPARTATE AMINOTRANSFERASE [1]: 93.83 u/L | BLOOD UREA NITROGEN [1]: 14.17 mg/dL | CARBON DIOXIDE [1]: 33.5 mmol/L | CHLORIDE [1]: 100 MEQ/L | CHOLESTEROL [1]: 70.33 mg/dL | CREATINE PHOSPHOKINASE [1]: 438.67 u/L | CREATININE [1]: 0.19 mg/dL | GLUCOSE [1]: 138.5 mg/dL | LACTATE DEHYDROGENASE [1]: 190.17 u/L | LIPASE [1]: 9.83 u/L | PHOSPHORUS [1]: 11.05 mg/dL | POTASSIUM [1]: 6.59 MEQ/L | SODIUM [1]: 143.58 MEQ/L | TOTAL BILIRUBIN [1]: 0.22 mg/dL | TOTAL PROTEIN [1]: 6.15 G/DL | URIC ACID [1]: 1.3 mg/dL | ABSOLUTE BASOPHIL [2]: 0 CELLS/uL | ABSOLUTE EOSINOPHIL [2]: 91.17 CELLS/uL | ABSOLUTE LYMPHOCYTE [2]: 11847.67 CELLS/uL | ABSOLUTE MONOCYTE [2]: 172.83 CELLS/uL | ABSOLUTE SEGMENTED NEUTROPHIL [2]: 1105 CELLS/uL | BASOPHIL [2]: 0% | EOSINOPHIL [2]: 0.67% | ERYTHROCYTE COUNT [2]: 5.35 x10E6/uL | HEMATOCRIT [2]: 33.65% | HEMOGLOBIN [2]: 13.42 G/DL | LEUKOCYTE COUNT [2]: 13.22 x10E3/uL | LYMPHOCYTE [2]: 89.83% | MEAN CORPUSCULAR HEMOGLOBIN [2]: 25.12 pg | MEAN CORPUSCULAR HEMOGLOBIN CONCENTRATION [2]: 39.9 G/DL | MEAN CORPUSCULAR VOLUME [2]: 63 fL | MONOCYTE [2]: 1.33% | NEUTROPHIL [2]: 8.17% | NUCLEATED RED BLOOD CELLS [2]: 0 /100WBC | PLATELET COUNT [2]: 1347.83 x10E3/uL | ALANINE AMINOTRANSFERASE [2]: 50 u/L | ALBUMIN [2]: 4.1 G/DL | ALKALINE PHOSPHATASE [2]: 329.17 u/L | ASPARTATE AMINOTRANSFERASE [2]: 77.17 u/L | BLOOD UREA NITROGEN [2]: 16.83 mg/dL | CARBON DIOXIDE [2]: 34.83 mmol/L | CHLORIDE [2]: 99.83 MEQ/L | CHOLESTEROL [2]: 75.67 mg/dL | CREATINE PHOSPHOKINASE [2]: 295.83 u/L | CREATININE [2]: 0.18 mg/dL | GLUCOSE [2]: 156.33 mg/dL | LACTATE DEHYDROGENASE [2]: 166.83 u/L | LIPASE [2]: 9.83 u/L | PHOSPHORUS [2]: 12.18 mg/dL | POTASSIUM [2]: 6.69 MEQ/L | SODIUM [2]: 143.97 MEQ/L | TOTAL BILIRUBIN [2]: 0.22 mg/dL | TOTAL PROTEIN [2]: 6.05 G/DL | URIC ACID [2]: 1.6 mg/dL | ABSOLUTE BASOPHIL [3]: 0 CELLS/uL | ABSOLUTE EOSINOPHIL [3]: 0 CELLS/uL | ABSOLUTE LYMPHOCYTE [3]: 10822.33 CELLS/uL | ABSOLUTE MONOCYTE [3]: 0 CELLS/uL | ABSOLUTE SEGMENTED NEUTROPHIL [3]: 1344.33 CELLS/uL | BASOPHIL [3]: 0% | EOSINOPHIL [3]: 0% | ERYTHROCYTE COUNT [3]: 5.32 x10E6/uL | HEMATOCRIT [3]: 33.73% | HEMOGLOBIN [3]: 13.37 G/DL | LEUKOCYTE COUNT [3]: 12.17 x10E3/uL | LYMPHOCYTE [3]: 89% | MEAN CORPUSCULAR HEMOGLOBIN [3]: 25.13 pg | MEAN CORPUSCULAR HEMOGLOBIN CONCENTRATION [3]: 39.6 G/DL | MEAN CORPUSCULAR VOLUME [3]: 63.4 fL | MONOCYTE [3]: 0% | NEUTROPHIL [3]: 11% | NUCLEATED RED BLOOD CELLS [3]: 0 /100WBC | PLATELET COUNT [3]: 1197.33 x10E3/uL | ALANINE AMINOTRANSFERASE [3]: 47.67 u/L | ALBUMIN [3]: 4.13 G/DL | ALKALINE PHOSPHATASE [3]: 420 u/L | ASPARTATE AMINOTRANSFERASE [3]: 80.67 u/L | BLOOD UREA NITROGEN [3]: 13.67 mg/dL | CARBON DIOXIDE [3]: 25.67 mmol/L | CHLORIDE [3]: 103.67 MEQ/L | CHOLESTEROL [3]: 75.67 mg/dL | CREATINE PHOSPHOKINASE [3]: 200.33 u/L | CREATININE [3]: 0.16 mg/dL | GLUCOSE [3]: 152.33 mg/dL | LACTATE DEHYDROGENASE [3]: 214.67 u/L | LIPASE [3]: 9 u/L | PHOSPHORUS [3]: 14.03 mg/dL | POTASSIUM [3]: 6.82 MEQ/L | SODIUM [3]: 146.53 MEQ/L | TOTAL BILIRUBIN [3]: 0.17 mg/dL | TOTAL PROTEIN [3]: 5.97 G/DL | URIC ACID [3]: 1.5 mg/dL

Source: ChEMBL document CHEMBL3885881, “DrugMatrix”
